Reference: patent publication US6635802B1, “Nuclear transfer using cells cultured in serum starvation media containing apoptosis inhibitors” (The Texas A&M University System, priority 2000, dated 2003)

B1: α2-macroglobulin (protein, UniProt P01023 24-1474, looked up)
Alpha-2-macroglobulin: SVSGKPQYMVLVPSLLHTETTEKGCVLLSYLNETVTVSASLESVRGNRSLFTDLEAENDVLHCVAFAVPKSSSNEEVMFLTVQVKGPTQEFKKRTTVMVKNEDSLVFVQTDKSIYKPGQTVKFRVVSMDENFHPLNELIPLVYIQDPKGNRIAQWQSFQLEGGLKQFSFPLSSEPFQGSYKVVVQKKSGGRTEHPFTVEEFVLPKFEVQVTVPKIITILEEEMNVSVCGLYTYGKPVPGHVTVSICRKYSDASDCHGEDSQAFCEKFSGQLNSHGCFYQQVKTKVFQLKRKEYEMKLHTEAQIQEEGTVVELTGRQSSEITRTITKLSFVKVDSHFRQGIPFFGQVRLVDGKGVPIPNKVIFIRGNEANYYSNATTDEHGLVQFSINTTNVMGTSLTVRVNYKDRSPCYGYQWVSEEHEEAHHTAYLVFSPSKSFVHLEPMSHELPCGHTQTVQAHYILNGGTLLGLKKLSFYYLIMAKGGIVRTGTHGLLVKQEDMKGHFSISIPVKSDIAPVARLLIYAVLPTGDVIGDSAKYDVENCLANKVDLSFSPSQSLPASHAHLRVTAAPQSVCALRAVDQSVLLMKPDAELSASSVYNLLPEKDLTGFPGPLNDQDNEDCINRHNVYINGITYTPVSSTNEKDMYSFLEDMGLKAFTNSKIRKPKMCPQLQQYEMHGPEGLRVGFYESDVMGRGHARLVHVEEPHTETVRKYFPETWIWDLVVVNSAGVAEVGVTVPDTITEWKAGAFCLSEDAGLGISSTASLRAFQPFFVELTMPYSVIRGEAFTLKATVLNYLPKCIRVSVQLEASPAFLAVPVEKEQAPHCICANGRQTVSWAVTPKSLGNVNFTVSAEALESQELCGTEVPSVPEHGRKDTVIKPLLVEPEGLEKETTFNSLLCPSGGEVSEELSLKLPPNVVEESARASVSVLGDILGSAMQNTQNLLQMPYGCGEQNMVLFAPNIYVLDYLNETQQLTPEIKSKAIGYLNTGYQRQLNYKHYDGSYSTFGERYGRNQGNTWLTAFVLKTFAQARAYIFIDEAHITQALIWLSQRQKDNGCFRSSGSLLNNAIKGGVEDEVTLSAYITIALLEIPLTVTHPVVRNALFCLESAWKTAQEGDHGSHVYTKALLAYAFALAGNQDKRKEVLKSLNEEAVKKDNSVHWERPQKPKAPVGHFYEPQAPSAEVEMTSYVLLAYLTAQPAPTSEDLTSATNIVKWITKQQNAQGGFSSTQDTVVALHALSKYGAATFTRTGKAAQVTIQSSGTFSSKFQVDNNNRLLLQQVSLPELPGEYSMKVTGEGCVYLQTSLKYNILPEKEEFPFALGVQTLPQTCDEPKAHTSFQISLSVSYTGSRSASNMAIVDVKMVSGFIPLKPTVKMLERSNHVSRTEVSSNHVLIYLDKVSNQTLSLFFTVLQDVPVRDLKPAIVKVYDYYETDEFAIAEYNAPCSKDLGNA

Legend:
[1] = test system: mouse ES cells; assay: Culture of mouse ES cells with NAC; type: cell-based
[2] = test system: Bovine embryonic fibroblasts (BEF); assay: TUNEL assay (flow cytometry) of serum starved bovine embryonic fibroblasts; type: cell-based; conditions: MAC 0.7 pM, NAC 1 mM, GSH 2 mM; for 5-day Apoptosis (%): serum starvation 5 days, serum starved without inhibitor 15.0; for 10-day Apoptosis (%): serum starvation 10 days, serum starved without inhibitor 20.4
Protocol: Bovine embryonic fibroblasts (BEF) were isolated from the fetus with 3-5 cm crown-rump length. After two or three passages, cells were plated one million cells per plate (100 mm) with growth medium (DMEM) with 2 mM L-glutamine, 0.1 mM β-mercaptoethanol and 10% FBS. After 24 hours, cells were washed with PBS 3-5 times and then serum starvation medium with 0.5% FBS was added. In addition, cells were treated with serum starvation medium containing apoptosis inhibitors such as a2-macroglobulin (0.7 pM), N-acetylcysteine (1 mM) and glutathione (2 mM). Cells were treated with serum starvation with or without apoptosis inhibitors for 5 or 10 days. Then cells were trypsinized and counted.
After counting, cells were fixed and stained according to protocols with the APO-BRDU kit (Phoenix Flow Systems, San Diego, Calif.). Briefly, cells were fixed in 1% paraformaldehyde in PBS on ice for 15 minutes, washed in PBS, and fixed in 70% ethanol and stored at −20° C. until use. After removing the fixative, cells were washed twice and suspended in 50 μl of labeling solution containing Br-dUTP (bromolated deoxyuridine triphosphate) and TdT (terminal deoxynucleotidyl transferase) for 60 minutes at 37° C. TdT catalyzes the addition of Br-dUTP to the 3′-OH ends of DNA strand breaks in a template independent manner. To determine base line fluorescence, control cells were incubated without TdT. After rinsing, cells were incubated with an anti-BrdU monoclonal antibody conjugated to fluorescein for 30 minutes in the dark at room temperature; apoptotic cells which contain many free 3′-OH ends are intensely labeled, while non-apoptotic cells whose DNA is largely intact have little Br-dUTP incorporation and remain unlabeled. Following counterstaining with a propidium iodide/RNase A solution for 30 minutes in the dark, which allows simultaneous analysis of cell cycle position and apoptosis, cells were analyzed on a FACSCalibur™ flow cytometer (Becton Dickinson, San Jose, Calif.). Fluorescence emissions were measured at 582±21 nm for propidium iodide and 530±15 nm for fluorescein, without spectral compensation, after excitation at 488 nm by an argon-ion laser. For analysis, gates were set so that less than 2% of samples incubated without TdT were positive. Any event above this gate was deemed TUNEL positive for samples incubated with TdT.

Molecule | % viable cells, in words ([1]; in the presence of NAC) | Effect on mouse ES cells, in words ([1]; normal culture conditions and absence of BME) | 5-day Apoptosis (%) [2] [%] | 10-day Apoptosis (%) [2] [%]
CC(=O)N[C@@H](CS)C(=O)O [NAC, N-acetylcysteine] | not greatly affected | beneficial effect | 1.8 | 1.1
B1 | – | – | 3.9 | 4.6
